Where a name gives a salt, the structure may show the parent alone. Read-outs that look alike come from different tables or passages of the source.
What was measured:
P. falciparum strain D6 = assay: [3H]-hypoxanthine growth inhibition assay, P. falciparum D6; assay type: cell-based; settings: Plasmodium falciparum
Procedure: (§1) The potential for antimalarial activity against Plasmodium falciparum was determined by measuring the incorporation of tritiated hypoxanthine into parasitized red blood cells.
(§2) Stock solutions of the test compounds and the reference drug chloroquine (CQ) (Sigma Chemicals C-6628, Lot #059H0919) were prepared in silanized glass vials with AquaSil™ (Pierce, USA) to minimize absorption of the compounds to glassware. All test compounds were dissolved in DMSO (Sigma Cat No. #D8418) to 1 mM concentration, whereas CQ was dissolved in 50% methanol at a concentration of 1.6 mg/ml (base). Stock solutions were stored at −20° C.
(§3) The P. falciparum laboratory adapted strains utilized in this project (Table 1) were in vitro cultured and routinely maintained in RPMI-1640-LPLF complete medium, which contained low concentrations of para-amino benzoic acid (0.0005 mg/L) and folic acid (0.01 mg/L).
(§4) The low concentration of folic acid in RPMI-1640-LPLF prevents inhibition of the compound if its activity targets the parasite's folate metabolic pathway. Parasites were cultured in human red blood cells (RBCs) in vitro at 37° C. in special gas mixture (5% O2, 5% CO2 and 90% N2) as described Trager and Jensen (1979 Science 193:673-675).
(§5) Base cultivation medium consisted of 10.4 g/L RPMI-1640-LPLF powder (Gibco BRL), 5.97 g/L HEPES buffer (MP Biomedicals, USA), 2.0 g/L D-glucose (BDH chemicals, Australia), 0.05 g/L hypoxanthine (Sigma, USA) and 40 mg/L gentamycin (Pfizer, Australia). The pH of the medium was adjusted to 6.9 and the solution was filtered using 0.2 μm pore size (AcroCap, Gelman Science, USA). Complete medium was prepared by adding sodium bicarbonate solution (final concentration, 0.21%) and drug-free heat-inactivated human plasma, pooled from various blood types, obtained from the Australian Red Cross Blood Service (Brisbane) (final concentration, 10%) to the base RPMI-1640-LPLF. For [^3H]-hypoxanthine inhibition growth assay, RPMI-1640-LPLF complete medium which lacked [^3H]-hypoxanthine ([^3H]-RPMI-1640-LPLF) was used to prevent uptake of hypoxanthine by parasites, as radioactive hypoxanthine uptake is measured as a surrogate marker of growth. All complete medium was used within three days of preparation. See DE (Para) SOP 002 for methodology.
(§6) Red blood cells (RBC) were required for P. falciparum parasites to proliferate in vitro. 0 (Rh+) type blood was obtained from the Australian Red Cross Blood Service. The RBC were washed twice in phosphate-buffered saline (PBS) and once in [^3H]-RPMI-1640-LPLF complete medium by centrifugation at 1,500×g for 5 min. Following the final wash, the haematocrit was measured as the percent of RBC to total culture volume. The haematocrit was adjusted to 50% by removing or adding [^3H]-RPMI-LPLF complete medium. See DE (Para) SOP 003 for methodology.
(§7) All P. falciparum strains were grown in RPMI-1640-LPLF complete medium at 4% haematocrit and 1% to 8% parasitaemia at 37° C. in sealed flasks in a gas mixture of 5% O2, 5% CO2 and 90% N2 (BOC Gases, Brisbane, Australia). For drug susceptibility assays cultures were routinely synchronized when the majority of parasites (>85%) were at early trophozoite (ring) stage. Synchronization involved removing the more mature erythrocytic parasite stages by lysis, resulting in the retention only of early trophozoite (ring) stages. Synchronization was performed by re-suspending the infected red blood cell (iRBC) pellet in 5 to 10 times its volume of 5% D-sorbitol (Bacto Laboratories Pty. Ltd., Australia) for 5 min (Lambros and Vanderberg, 1979 J Parasitol 65: 418-420). The mixture was centrifuged (1,500 rpm for 5 min) and the supernatant removed. The iRBC were washed twice using PBS buffer and once using [^3H]-RPMI-LPLF plain medium. Following synchronization, a new culture was prepared with an initial parasitaemia of 1% in RPMI-LPLF complete medium. See DE (Para) SOP 008 for methodology.

P. falciparum strain W2 = assay: [3H]-hypoxanthine growth inhibition assay, P. falciparum W2; assay type: cell-based; settings: Plasmodium falciparum
Procedure: as §1, §2, §3, §4, §5, §6, §7

[1] = P. falciparum D6 (sensitive to chloroquine and pyrimethamine), [3H]-hypoxanthine incorporation, read-out: D6 IC50
[2] = P. falciparum W2 (resistant to chloroquine and pyrimethamine), [3H]-hypoxanthine incorporation, read-out: W2 IC50

CC(C)(C)NCc1cc(C(C)(C)C)cc(-c2cc(C(F)(F)F)ccn2)c1O [Example 28, 4-(tert-Butyl)-2-((tert-butylamino)methyl)-6-(4-(trifluoromethyl)pyridin-2-yl)phenol hydrochloride]
IC50 (P. falciparum strain D6; [1]): 0.357 µM | IC50 (P. falciparum strain W2; [2]): 0.111 µM

CC(C)(C)NCc1cc(C#N)cc(-c2ccc(C(F)(F)F)nc2)c1O [Example 71, 3-((tert-Butylamino)methyl)-4-hydroxy-5-(6-(trifluoromethyl)pyridin-3-yl)benzonitrile hydrochloride]
IC50 (P. falciparum strain D6; [1]): 93.1 µM | IC50 (P. falciparum strain W2; [2]): 50.7 µM

CC(C)(C)NCc1cc(C(C)(C)C)cc(-c2cc3ccccc3s2)c1O [Example 7, 2-(Benzo[b]thiophen-2-yl)-4-(tert-butyl)-6-((tert-butylamino)methyl)phenol hydrochloride]
IC50 (P. falciparum strain D6; [1]): 0.018 µM | IC50 (P. falciparum strain W2; [2]): 0.009 µM

Cc1ccc(-c2cc(C(C)(C)C)cc(CNC(C)(C)C)c2O)nc1 [Example 25, 4-(tert-Butyl)-2-((tert-butylamino)methyl)-6-(5-methylpyridin-2-yl)phenol dihydrochloride]
IC50 (P. falciparum strain D6; D6, read-out: D6 IC50): ≥ 20 µM | IC50 (P. falciparum strain W2; W2, read-out: W2 IC50): ≥ 20 µM

COc1cncc(-c2cc(C(C)(C)C)cc(CNC(C)(C)C)c2O)c1 [Example 17, 4-(tert-Butyl)-2-((tert-butylamino)methyl)-6-(5-methoxypyridin-3-yl)phenol dihydrochloride]
IC50 (P. falciparum strain D6; D6, read-out: D6 IC50): 0.03 µM | IC50 (P. falciparum strain W2; W2, read-out: W2 IC50): 0.025 µM

CC(C)(C)NCc1cc(C(C)(C)C)cc(-c2cncc3ccccc23)c1O [Example 13, 4-(tert-Butyl)-2-((tert-butylamino)methyl)-6-(isoquinolin-4-yl)phenol dihydrochloride]
IC50 (P. falciparum strain D6; D6, read-out: D6 IC50): 0.073 µM | IC50 (P. falciparum strain W2; W2, read-out: W2 IC50): 0.085 µM

Cn1nc(C(F)(F)F)cc1-c1cc(C(C)(C)C)cc(CNC(C)(C)C)c1O [Example 9, 4-(tert-Butyl)-2-((tert-butylamino)methyl)-6-(1-methyl-3-(trifluoromethyl)-1H-pyrazol-5-yl)phenol hydrochloride]
IC50 (P. falciparum strain D6; [1]): 0.094 µM | IC50 (P. falciparum strain W2; [2]): 0.048 µM

CC(C)(C)NCc1cc(-c2ccc(S(C)(=O)=O)cc2)cc(-c2ccc(C(F)(F)F)nc2)c1O [Example 55, 3-((tert-Butylamino)methyl)-4′-(methylsulfonyl)-5-(6-(trifluoromethyl)pyridin-3-yl)-[1,1′-biphenyl]-4-ol hydrochloride]
IC50 (P. falciparum strain D6; [1]): 2.5 µM | IC50 (P. falciparum strain W2; [2]): 4 µM

CC(C)(C)NCc1cc(C(C)(C)C)cc(-c2cncc(Cl)c2)c1O [Example 21, 4-(tert-Butyl)-2-((tert-butylamino)methyl)-6-(5-chloropyridin-3-yl)phenol dihydrochloride]
IC50 (P. falciparum strain D6; D6, read-out: D6 IC50): 0.017 µM | IC50 (P. falciparum strain W2; W2, read-out: W2 IC50): 0.008 µM

CCN(CC)CCNCc1cc(C(C)(C)C)cc(-c2ccc(C(F)(F)F)nc2)c1O [Example 63, 4-(tert-Butyl)-2-(((2-(diethylamino)ethyl)amino)methyl)-6-(6-(trifluoromethyl)pyridin-3-yl)phenol dihydrochloride]
IC50 (P. falciparum strain D6; D6, read-out: D6 IC50): 0.009 µM | IC50 (P. falciparum strain W2; W2, read-out: W2 IC50): 0.007 µM

CC(CN)NCc1cc(C(C)(C)C)cc(-c2ccc(C(F)(F)F)nc2)c1O (centres unmarked) [Example 65, 2-(((1-Aminopropan-2-yl)amino)methyl)-4-(tert-butyl)-6-(6-(trifluoromethyl)pyridin-3-yl)phenol dihydrochloride]
IC50 (P. falciparum strain D6; D6, read-out: D6 IC50): 0.394 µM | IC50 (P. falciparum strain W2; W2, read-out: W2 IC50): 0.21 µM

CC(C)(C)NCc1cc(C(C)(C)C)cc(-c2ccncc2C(F)(F)F)c1O [Example 35, 4-(tert-Butyl)-2-((tert-butylamino)methyl)-6-(3-(trifluoromethyl)pyridin-4-yl)phenol dihydrochloride]
IC50 (P. falciparum strain D6; D6, read-out: D6 IC50): 0.549 µM | IC50 (P. falciparum strain W2; W2, read-out: W2 IC50): 0.144 µM

CC(C)(C)NCc1cc(C(C)(C)C)cc(-c2ccc3ncccc3c2)c1O [Example 5, 4-(tert-Butyl)-2-((tert-butylamino)methyl)-6-(quinolin-6-yl)phenol dihydrochloride]
IC50 (P. falciparum strain D6; D6, read-out: D6 IC50): 0.037 µM | IC50 (P. falciparum strain W2; W2, read-out: W2 IC50): 0.025 µM

CC(C)(C)NCc1cc(Cl)cc(-c2ccc(C(F)(F)F)nc2)c1O [Example 69, 2-((tert-Butylamino)methyl)-4-chloro-6-(6-(trifluoromethyl)pyridin-3-yl)phenol hydrochloride]
IC50 (P. falciparum strain D6; [1]): 0.239 µM | IC50 (P. falciparum strain W2; [2]): 0.13 µM

CC(C)(C)c1cc(CN)c(O)c(-c2ccc(C(F)(F)F)nc2)c1 [Example 64, 2-(Aminomethyl)-4-(tert-butyl)-6-(6-(trifluoromethyl)pyridin-3-yl)phenol hydrochloride]
IC50 (P. falciparum strain D6; [1]): 0.216 µM | IC50 (P. falciparum strain W2; [2]): 0.202 µM

CC(C)(C)NCc1cc(C(C)(C)C)cc(-c2ccc(C(F)(F)F)cn2)c1O [Example 40, 4-(tert-Butyl)-2-((tert-butylamino)methyl)-6-(5-(trifluoromethyl)pyridin-2-yl)phenol]
IC50 (P. falciparum strain D6; [1]): 0.231 µM | IC50 (P. falciparum strain W2; [2]): 0.079 µM

CC(C)(C)c1cc(CNCCCN)c(O)c(-c2ccc(C(F)(F)F)nc2)c1 [Example 62, 2-(((3-Aminopropyl)amino)methyl)-4-(tert-butyl)-6-(6-(trifluoromethyl)pyridin-3-yl)phenol dihydrochloride]
IC50 (P. falciparum strain D6; D6, read-out: D6 IC50): 0.133 µM | IC50 (P. falciparum strain W2; W2, read-out: W2 IC50): 0.223 µM

CC(C)(C)NCc1cc(C(C)(C)C)cc(-c2ccc(N3CCCC3)nc2)c1O [Example 15, 4-(tert-Butyl)-2-((tert-butylamino)methyl)-6-(6-(pyrrolidin-1-yl)pyridin-3-yl)phenol dihydrochloride]
IC50 (P. falciparum strain D6; D6, read-out: D6 IC50): 0.024 µM | IC50 (P. falciparum strain W2; W2, read-out: W2 IC50): 0.016 µM

CC(C)(C)NCc1cc(-c2cccc(F)c2)cc(-c2ccc(C(F)(F)F)nc2)c1O [Example 67, 3-((tert-Butylamino)methyl)-3′-fluoro-5-(6-(trifluoromethyl)pyridin-3-yl)-[1,1′-biphenyl]-4-ol hydrochloride]
IC50 (P. falciparum strain D6; [1]): 0.1 µM | IC50 (P. falciparum strain W2; [2]): 0.053 µM

CC(C)(C)NCc1cc(-c2ccc(Cl)cc2)nc(-c2ccc(C(F)(F)F)nc2)c1O [Example 74, 4-((tert-Butylamino)methyl)-6-(4-chlorophenyl)-6′-(trifluoromethyl)-[2,3′-bipyridin]-3-ol 1.1hydrochloride]
IC50 (P. falciparum strain D6; [1]): 0.054 µM | IC50 (P. falciparum strain W2; [2]): 0.023 µM

Cc1ccc(-c2cc(C(C)(C)C)cc(CNC(C)(C)C)c2O)cn1 [Example 30, 4-(tert-Butyl)-2-((tert-butylamino)methyl)-6-(6-methylpyridin-3-yl)phenol dihydrochloride]
IC50 (P. falciparum strain D6; D6, read-out: D6 IC50): 0.067 µM | IC50 (P. falciparum strain W2; W2, read-out: W2 IC50): 0.042 µM

CC(C)(C)NCc1cc(C(C)(C)C)cc(-c2ccc(F)cn2)c1O [Example 26, 4-(tert-Butyl)-2-((tert-butylamino)methyl)-6-(5-fluoropyridin-2-yl)phenol 1.35hydrochloride]
IC50 (P. falciparum strain D6; [1]): 1.33 µM | IC50 (P. falciparum strain W2; [2]): 0.598 µM

CC(C)(C)NCc1cc(C(C)(C)C)cc(-c2cccc3ncccc23)c1O [Example 4, 4-(tert-Butyl)-2-((tert-butylamino)methyl)-6-(quinolin-5-yl)phenol dihydrochloride]
IC50 (P. falciparum strain D6; D6, read-out: D6 IC50): 0.144 µM | IC50 (P. falciparum strain W2; W2, read-out: W2 IC50): 0.2 µM

CC(C)(C)NCc1cc(C(C)(C)C)cc(-c2ncccc2C(F)(F)F)c1O [Example 31, 4-(tert-Butyl)-2-((tert-butylamino)methyl)-6-(3-(trifluoromethyl)pyridin-2-yl)phenol 1.7hydrochloride]
IC50 (P. falciparum strain D6; [1]): 5.48 µM | IC50 (P. falciparum strain W2; [2]): 2.27 µM

CC(C)(C)NCc1cc(C(C)(C)C)cc(-c2ccc(N)nc2)c1O [Example 11, 2-(6-Aminopyridin-3-yl)-4-(tert-butyl)-6-((tert-butylamino)methyl)phenol dihydrochloride]
IC50 (P. falciparum strain D6; D6, read-out: D6 IC50): 0.35 µM | IC50 (P. falciparum strain W2; W2, read-out: W2 IC50): 0.398 µM

Reference: patent US9409893B2, “Heteroaryl derivatives and uses thereof” (Jacobus Pharmaceutical Company, Inc., priority 2012, dated 2016)
